{"source": "patent US20250051403A1", "about": "“ANTIMICROBIAL PEPTIDES, VARIANTS AND CHEMICAL ANALOGUES THEREOF AND THEIR USES” (priority 2021, published 2025)", "key": {"[1]": {"tested_on": "P. aeruginosa", "assay": "Serial passage/resistance assay", "type": "cell-based, Pseudomonas aeruginosa", "conditions": "continuous exposure to sub-lethal doses, 30 days"}, "[2]": {"tested_on": "Bacillus subtilis (ATCC 6633)", "assay": "MIC, broth microdilution", "type": "cell-based", "conditions": "Table IV, strain description", "method": "To standardize the bacterial cell suspension for assay of antibacterial activity, some colonies of each strain grown overnight on MHA (Mueller Hinton Agar. ROTH) plates were suspended in MHB (Mueller Hinton Broth. ROTH) or MHB saline (Mueller Hinton Broth containing 565 mM NaCl) and incubated at 37° C. or 30° C. until visible turbid. This log-phase inoculum was diluted 1:100 in the same culture media. Using sterile 96-well microtiter plates (CELLSTAR. Greiner bio-one), serial 2-fold dilutions (40 to 0.78 μM) of each peptide were prepared in cation-adjusted acetic acid 0.02% with 0.4% BSA (Bovin Serum Albumin fraction V. Boehringer) at a volume of 10 μL/well. Each well was inoculated with 100 μL of the standardized bacterial inoculum, corresponding to a final test concentration of about 10^5 CFU/mL. Antimicrobial activities were expressed as the MIC (Minimal Inhibitory Concentration), the lowest concentration of peptide at which 100% inhibition of microbial growth was observed after 24 h of incubation at 37° C. or 30° C. by measuring OD600 in a microtiter plate reader. The minimal bactericidal concentration (MBC) was defined as the peptide concentration where no colony growth was observed.\nThe same experiments as described in 1) were performed. For the evaluation of antimicrobial activity against some other strains, a resazurin microtiter assay was used as explained hereinafter."}, "[3]": {"tested_on": "B. subtilis nisin resistant (DSMZ 347)", "conditions": "Table IV, strain description"}, "[4]": {"tested_on": "P. aeruginosa", "assay": "Membrane permeabilization assay (propidium iodide)", "type": "cell-based, Pseudomonas aeruginosa", "conditions": "2.5 min of incubation, 37° C., 3 times their MIC; CTAB at 300 μM", "method": "Several tests were performed to determine the mechanism of the antimicrobial activity of the peptides of the invention. Most of the cationic AMP can increase the permeability of the bacterial membrane through pore-forming activity. We evaluated the ability of Michelicin to cause pore-formation using P. aeruginosa as model bacteria. Permeabilization of the bacterial membrane by Michelicin was evaluated using the cell-impermeable DNA probe propidium iodide (PI) (Di Pasquale et al., 2010; Oyama et al., 2017). PI can interact with DNA/RNA, leading to increase in fluorescence of the molecule. The bacterial membrane is impermeable to PI preventing its interaction with intracellular DNA/RNA. Thus, fluorescence of PI (expressed as RFU: relative fluorescence unit) only increases if membrane integrity is compromised through pore-formation. We measured the time-dependent effect of our peptide and other molecules on PI fluorescence at 37° C., all molecules being tested at 3 times their MIC. […] Kinetics of fluorescence variations (excitation at 530 nm/emission at 590 nm) were recorded using a microplate reader (SynergyMx, Bioteck) over 80 min period at 37° C. […] The permeabilization effect of the tested compound (i.e., Michelicin, Alvinellacin, Arenicin, and control, PMB or CTAB) was expressed as percentage of total permeabilization caused by CTAB."}, "[5]": {"tested_on": "Vibrio alginolyticus"}, "[6]": {"tested_on": "Human umbilical vein endothelial cell (HUVEC)", "assay": "Cytotoxicity, resazurin cell viability", "type": "cell-based", "conditions": "even at doses>80 μM", "method": "(§1) The toxicity of Michelicin on human cells was tested as previously described (Borie et al., 2017; Oyama et al., 2017). Briefly, human cells were cultured in Dulbecco's modified essential medium (DMEM) supplemented with 10% fetal calf serum (FCS), 1% L-glutamine and 1% antibiotics (all from Invitrogen). Cells were routinely grown in onto 25 cm^2 flasks maintained in a 5% CO2 incubator at 37° C. For toxicity assay, cells grown on 25 cm^2 flasks were detached using trypsin-EDTA solution (Thermofisher) and seeded into 96-well cell culture plates (Greiner Bio-one) at approximately 10^4 cells per well (counted using Mallasez's chamber). The cells were grown at 37° C. in a 5% CO2 incubator until they reached confluence (approximately 48-72 h of seeding). Wells were then aspirated and increasing concentrations of AMP were added to the cells and incubated for a further 48 h at 37° C. in a 5% CO2 incubator. The wells were then emptied, and cell viability was evaluated using resazurin based in vitro toxicity assay kit (Sigma-Aldrich) following manufacturer's instructions. Briefly, resazurin stock solution was diluted 1:100 in sterile PBS containing calcium and magnesium (PBS++, pH 7.4) and emptied wells were filled with 100 μL of the resazurin diluted solution. After 4 h incubation at 37° C. with the peptide treated cells, fluorescence intensity was measured using microplate reader (SynerMix, Bioteck) (excitation wavelength of 530 nm/emission wavelength of 590 nm). The fluorescence values were normalized by the controls and expressed as percentage of cell viability. The IC50 values of tested AMP on cell viability (i.e. the concentration of peptides causing a reduction of 50% of the cell viability) were calculated using GraphPad® Prism 7 software. Two cell lines were tested: Human Bronchial Epithelial Cell Line (BEAS; ATCC CRL-9609) and Human umbilical vein endothelial cell (HUVEC)."}, "[7]": {"tested_on": "Human Bronchial Epithelial Cell Line (BEAS; ATCC CRL-9609)", "assay": "Cytotoxicity, resazurin cell viability", "type": "cell-based", "conditions": "even at doses>80 μM", "method": "as §1"}, "[8]": {"assay": "Cytotoxicity, resazurin cell viability", "type": "cell-based, human", "conditions": "human, 80 μM, 48 h", "method": "as §1"}, "[9]": {"tested_on": "M. smegmatis mc^2155"}, "[10]": {"tested_on": "Mycobacterium tuberculosis mc^26230"}, "[11]": {"tested_on": "human erythrocytes", "assay": "Haemolytic assay", "type": "cell-based", "method": "The hemolytic activity of the peptides was determined using fresh human erythrocytes from healthy donors. Blood was centrifuged and the erythrocytes were washed three times with a phosphate-buffered saline (PBS: 35 mM phosphate buffer/150 mM NaCl, pH 7.4). […] Samples were incubated at 37° C. for 60 min. After incubating the mixtures were centrifuged at 1,500 rpm for 10 min. The release of hemoglobin was monitored by measuring the absorbance (Abs) of the supernatant at 405 nm. Hemolytic rates of 0 and 100% were determined in PBS and 0.1% Triton X-100, respectively. The percentage of hemolysis was calculated by employing the following equation: Percentage hemolysis=[([…])/(Abs405 nm in 0.1% Triton X-100−Abs405 nm in PBS)]×100."}, "[12]": {"tested_on": "P. aeruginosa"}, "[13]": {"tested_on": "human lung fibroblasts (IMR90 cells (ATCC CCL-186))", "assay": "Cytotoxicity", "type": "cell-based", "conditions": "even at doses>80 μM"}}, "note": "Where two headings read alike, the source gives them in different places. Positions of bridges follow the written chain, without caps; N, C: chain ends. Residues, ends and D or L forms follow the SMILES beside them."}
{"compound": "CO/N=C1\\CN(c2nc3c(cc2F)c(=O)c(C(=O)O)cn3C2CC2)CC1CN", "note": "(stereo not drawn) [Gemifloxacin]", "values": [{"measurement": "Resistance induction / fold increase in initial MIC (in words)", "setting": "[1]", "value": "relevant"}]}
{"compound": "Nisin", "values": [{"measurement": "MIC Nisin", "setting": "[2]", "value": "(MIC Nisin < 0.09 μg/mL)"}, {"measurement": "MIC Nisin", "setting": "[3]", "value": "MIC (Nisin 3 μg/mL)"}]}
{"compound": "polymyxin B [PMB]", "values": [{"measurement": "Permeabilization (percentage of total permeabilization caused by CTAB)", "setting": "[4]", "value": "2-5%"}]}
{"compound": "CC[C@H](C)[C@@H]1NC(=O)[C@H](CCCNC(=N)N)NC(=O)[C@H](C(C)C)NC(=O)[C@@H](NC(=O)[C@@H](NC(=O)[C@@H](N)CCCNC(=N)N)C(C)C)CSSC[C@@H](C(=O)N[C@@H](Cc2c[nH]c3ccccc23)C(=O)N[C@@H](CC(N)=O)C(=O)N[C@H](C(=O)O)[C@@H](C)O)NC(=O)[C@H](CCCNC(=N)N)NC(=O)[C@H](CCCNC(=N)N)NC(=O)[C@H](Cc2ccc(O)cc2)NC(=O)[C@@H]2CSSC[C@H](NC1=O)C(=O)N[C@@H](CCCNC(=N)N)C(=O)N[C@@H](CC(N)=O)C(=O)NCC(=O)N[C@@H](CCCNC(=N)N)C(=O)N2", "note": "[Michelicin, RVC1VRIC2RNGRC3YRRC4WNT] (H-RVCVRICRNGRCYRRCWNT-OH; disulfide 3-16, 7-12)", "values": [{"measurement": "MIC with 565 mM NaCl", "setting": "[5]", "value": "0.62 to 1.25", "unit": "µM"}, {"measurement": "V. alginolyticus MIC", "setting": "[5]", "value": "1.25 to 2.5", "unit": "µM"}, {"measurement": "MIC", "setting": "[5]; 24 h", "value": "0.07 to 0.15", "unit": "µM"}, {"measurement": "Cytotoxic activity towards HUVEC cells", "setting": "[6]", "value": "not observed"}, {"measurement": "Cytotoxic activity towards BEAS cells", "setting": "[7]", "value": "not observed"}, {"measurement": "viability at 48 h, 80 µM", "setting": "[8]; BEAS human bronchial epithelial cells (ATCC CRL-9609), read-out: % of viability, BEAS cells", "value": 100, "unit": "%"}, {"measurement": "viability at 48 h, 80 µM", "setting": "[8]; HUVEC (human umbilical vein endothelial cells), read-out: % of viability, HUVEC cells", "value": 95, "unit": "%"}, {"measurement": "M. smegmatis mc^2155 MIC", "setting": "[9]", "value": "0.57 to 2.15", "unit": "µM"}, {"measurement": "M. tuberculosis mc^26230 MIC", "setting": "[10]", "value": "12.3 to 13.0", "unit": "µM"}, {"measurement": "MIC", "setting": "[10]", "value": "12.3 to 13.0", "unit": "µM"}, {"measurement": "Effect on hemolysis", "setting": "[11]; 1.2 to 40 μM, 60 min at 37° C., FIG. 2", "value": "far less than the effect of Arenicin"}, {"measurement": "Hemolytic activity", "setting": "[11]; even at doses>80 μM", "value": "not observed"}, {"measurement": "P. aeruginosa MIC", "setting": "[12]", "value": "2.5 to 5", "unit": "µM"}, {"measurement": "Cytotoxic activity towards IMR90 cells", "setting": "[13]", "value": "not observed"}]}
